Experiments:
Assay in all cases: cells
[1] = tested on: LN-405; format: functional, cell-based, Homo sapiens; settings: Homo sapiens, LN-405
Description: SANGER: Inhibition of human LN-405 cell growth in a cell viability assay.

[2] = tested on: CHL-1; format: functional, cell-based, Homo sapiens; settings: Homo sapiens, CHL-1;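 further: cell growth inhibition, read out with a cell viability assay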
Description: SANGER: Inhibition of human CHL-1 cell growth in a cell viability assay.

[3] = tested on: HuP-T3; format: functional, cell-based, Homo sapiens; settings: Homo sapiens, HuP-T3;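 further: HuP-T3 cell growth inhibition, read out with a cell viability assay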
Description: SANGER: Inhibition of human HuP-T3 cell growth in a cell viability assay.

[4] = tested on: LAN-6; format: functional, cell-based, Homo sapiens; settings: Homo sapiens, LAN-6;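 further: growth inhibition of LAN-6 cells, determined with a cell viability assay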
Description: SANGER: Inhibition of human LAN-6 cell growth in a cell viability assay.

[5] = tested on: KYSE-520 cell line; format: functional, cell-based, Homo sapiens; settings: Homo sapiens, KYSE-520;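 further: growth inhibition of human KYSE-520 cells, read out with a viability assay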
Description: SANGER: Inhibition of human KYSE-520 cell growth in a cell viability assay.

[6] = tested on: UACC-62; format: functional, cell-based, Homo sapiens; settings: Homo sapiens, UACC-62;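 further: growth inhibition of human UACC-62 cells, read out by a cell viability assay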
Description: SANGER: Inhibition of human UACC-62 cell growth in a cell viability assay.

[7] = tested on: SW1990; format: functional, cell-based, Homo sapiens; settings: Homo sapiens, SW1990;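 further: cell growth inhibition determined with a viability assay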
Description: SANGER: Inhibition of human SW1990 cell growth in a cell viability assay.

[8] = tested on: NCI-H727; format: functional, cell-based, Homo sapiens; settings: Homo sapiens, NCI-H727;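 further: growth inhibition of human NCI-H727 cells, read out with a cell viability assay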
Description: SANGER: Inhibition of human NCI-H727 cell growth in a cell viability assay.

[9] = tested on: DSH1; format: functional, cell-based, Homo sapiens; settings: Homo sapiens, DSH1;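 further: growth inhibition of human DSH1 cells, measured with a cell viability readout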
Description: SANGER: Inhibition of human DSH1 cell growth in a cell viability assay.

[10] = tested on: NCI-H1092; format: functional, cell-based; settings: Homo sapiens;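 further: cell growth inhibition measured with a cell viability assay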
Description: SANGER: Inhibition of human NCI-H1092 cell growth in a cell viability assay.

[11] = tested on: Panc1005; format: functional, cell-based, Homo sapiens; settings: Homo sapiens, Panc1005;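 further: growth inhibition of human PANC-10-05 cells, measured by a cell viability assay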
Description: SANGER: Inhibition of human PANC-10-05 cell growth in a cell viability assay.

[12] = tested on: J-RT3-T3-5; format: functional, cell-based; settings: Homo sapiens;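 further: cell viability assay measuring growth inhibition of human J-RT3-T3-5 cells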
Description: SANGER: Inhibition of human J-RT3-T3-5 cell growth in a cell viability assay.

[13] = tested on: ES1; format: functional, cell-based, Homo sapiens; settings: Homo sapiens, ES1;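 further: growth inhibition of ES1 cells, read out with a cell viability assay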
Description: SANGER: Inhibition of human ES1 cell growth in a cell viability assay.

[14] = tested on: DU-4475; format: functional, cell-based; settings: Homo sapiens
Description: SANGER: Inhibition of human DU-4475 cell growth in a cell viability assay.

[15] = tested on: BB65-RCC; format: functional, cell-based, Homo sapiens; settings: Homo sapiens, BB65-RCC;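 further: growth inhibition of the cell line, measured with a cell viability assay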
Description: SANGER: Inhibition of human BB65-RCC cell growth in a cell viability assay.

[16] = tested on: SK-OV-3; format: functional, cell-based, Homo sapiens; settings: Homo sapiens, SK-OV-3;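 further: growth inhibition of SK-OV-3 human cells, read out with a cell viability assay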
Description: SANGER: Inhibition of human SK-OV-3 cell growth in a cell viability assay.

[17] = tested on: SNU1; format: functional, cell-based; settings: Homo sapiens;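 further: growth inhibition of human NCI-SNU-1 cells, measured with a cell viability assay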
Description: SANGER: Inhibition of human NCI-SNU-1 cell growth in a cell viability assay.

[18] = tested on: T98G; format: functional, cell-based, Homo sapiens; settings: Homo sapiens, T98G;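 further: growth inhibition of T98G cells, read out by a cell viability assay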
Description: SANGER: Inhibition of human T98G cell growth in a cell viability assay.

[19] = tested on: Daoy; format: functional, cell-based, Homo sapiens; settings: Homo sapiens, Daoy;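 further: daoy cell growth inhibition, read out as cell viability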
Description: SANGER: Inhibition of human Daoy cell growth in a cell viability assay.

[20] = tested on: S-117; format: functional, cell-based, Homo sapiens; settings: Homo sapiens, S-117
Description: SANGER: Inhibition of human S-117 cell growth in a cell viability assay.

[21] = tested on: HEL; format: functional, cell-based, Homo sapiens; settings: Homo sapiens, HEL;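 further: growth inhibition of HEL cells, read out with a cell viability assay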
Description: SANGER: Inhibition of human HEL cell growth in a cell viability assay.

[22] = tested on: MHH-ES-1; format: functional, cell-based, Homo sapiens; settings: Homo sapiens, MHH-ES-1;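 further: cell growth inhibition measured by a cell viability assay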
Description: SANGER: Inhibition of human MHH-ES-1 cell growth in a cell viability assay.

[23] = tested on: COLO-829; format: functional, cell-based, Homo sapiens; settings: Homo sapiens, COLO-829
Description: SANGER: Inhibition of human COLO-829 cell growth in a cell viability assay.

[24] = tested on: OE33; format: functional, cell-based, Homo sapiens; settings: Homo sapiens, OE33;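 further: growth inhibition of human OE33 cells, measured by a cell viability assay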
Description: SANGER: Inhibition of human OE33 cell growth in a cell viability assay.

[25] = tested on: SCC-25; format: functional, cell-based, Homo sapiens; settings: Homo sapiens, SCC-25;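 further: growth inhibition of SCC-25 cells, measured with a cell viability assay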
Description: SANGER: Inhibition of human SCC-25 cell growth in a cell viability assay.

[26] = tested on: SK-MEL-24; format: functional, cell-based; settings: Homo sapiens;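 further: growth inhibition read out by a cell viability assay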
Description: SANGER: Inhibition of human SK-MEL-24 cell growth in a cell viability assay.

[27] = tested on: JVM-2; format: functional, cell-based; settings: Homo sapiens;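 further: growth inhibition of JVM-2 cells determined by a cell viability assay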
Description: SANGER: Inhibition of human JVM-2 cell growth in a cell viability assay.

[28] = tested on: EW-16; format: functional, cell-based, Homo sapiens; settings: Homo sapiens, EW-16;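 further: growth inhibition of human EW-16 cells, read out as cell viability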
Description: SANGER: Inhibition of human EW-16 cell growth in a cell viability assay.

[29] = tested on: ONS-76; format: functional, cell-based, Homo sapiens; settings: Homo sapiens, ONS-76;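 further: growth inhibition of human ONS-76 cells, read out with a cell viability assay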
Description: SANGER: Inhibition of human ONS-76 cell growth in a cell viability assay.

[30] = tested on: HT-144; format: functional, cell-based, Homo sapiens; settings: Homo sapiens, HT-144
Description: SANGER: Inhibition of human HT-144 cell growth in a cell viability assay.

[31] = tested on: KOSC-2; format: functional, cell-based, Homo sapiens; settings: Homo sapiens, KOSC-2;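 further: growth inhibition of KOSC-2 cells, read out by a cell viability assay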
Description: SANGER: Inhibition of human KOSC-2 cell growth in a cell viability assay.

[32] = tested on: SNB-75; format: functional, cell-based, Homo sapiens; settings: Homo sapiens, SNB-75;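 further: cell viability assay measuring growth inhibition of human SNB-75 cells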
Description: SANGER: Inhibition of human SNB75 cell growth in a cell viability assay.

[33] = tested on: NCI-H1755; format: functional, cell-based, Homo sapiens; settings: Homo sapiens, NCI-H1755;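 further: cell viability readout used to measure growth inhibition of NCI-H1755 cells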
Description: SANGER: Inhibition of human NCI-H1755 cell growth in a cell viability assay.

[34] = tested on: HCC1937; format: functional, cell-based, Homo sapiens; settings: Homo sapiens, HCC1937;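 further: growth inhibition measured with a cell viability read-out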
Description: SANGER: Inhibition of human HCC1937 cell growth in a cell viability assay.

[35] = tested on: CAS-1; format: functional, cell-based, Homo sapiens; settings: Homo sapiens, CAS-1;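 further: growth inhibition of CAS-1 cells, measured with a cell viability assay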
Description: SANGER: Inhibition of human CAS-1 cell growth in a cell viability assay.

[36] = tested on: C32; format: functional, cell-based, Homo sapiens; settings: Homo sapiens, C32;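 further: cell viability assay, with IC50 reflecting inhibition of C32 cell growth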
Description: SANGER: Inhibition of human C32 cell growth in a cell viability assay.

[37] = tested on: 639-V; format: functional, cell-based, Homo sapiens; settings: Homo sapiens, 639-V;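 further: growth inhibition of 639-V cells, read out with a cell viability assay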
Description: SANGER: Inhibition of human 639-V cell growth in a cell viability assay.

[38] = tested on: A704; format: functional, cell-based, Homo sapiens; settings: Homo sapiens, A704;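 further: growth inhibition of human A704 cells, read out with a cell viability assay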
Description: SANGER: Inhibition of human A704 cell growth in a cell viability assay.

[39] = tested on: RO82-W-1; format: functional, cell-based, Homo sapiens; settings: Homo sapiens, RO82-W-1;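 further: growth inhibition of human RO82-W-1 cells, measured with a cell viability assay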
Description: SANGER: Inhibition of human RO82-W-1 cell growth in a cell viability assay.

[40] = tested on: A 172; format: functional, cell-based, Homo sapiens; settings: Homo sapiens, A 172;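 further: growth inhibition of A172 cells, measured with a cell viability readout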
Description: SANGER: Inhibition of human A172 cell growth in a cell viability assay.

[41] = tested on: RH-1; format: functional, cell-based, Homo sapiens; settings: Homo sapiens, RH-1;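 further: growth inhibition of human RH-1 cells, read out with a cell viability assay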
Description: SANGER: Inhibition of human RH-1 cell growth in a cell viability assay.

[42] = tested on: IST-MEL1; format: functional, cell-based, Homo sapiens; settings: Homo sapiens, IST-MEL1;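 further: growth inhibition of the cell line, read out with a cell viability assay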
Description: SANGER: Inhibition of human IST-MEL1 cell growth in a cell viability assay.

[43] = tested on: NCI-H1650; format: functional, cell-based, Homo sapiens; settings: Homo sapiens, NCI-H1650;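 further: growth inhibition of human NCI-H1650 cells measured by a cell viability assay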
Description: SANGER: Inhibition of human NCI-H1650 cell growth in a cell viability assay.

[44] = tested on: D-392MG; format: functional, cell-based, Homo sapiens; settings: Homo sapiens, D-392MG
[45] = tested on: HL-60; format: functional, cell-based; settings: Homo sapiens;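 further: growth inhibition of human HL-60 cells, read out with a cell viability assay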
Description: SANGER: Inhibition of human HL-60 cell growth in a cell viability assay.

[46] = tested on: RPMI-8866; format: functional, cell-based; settings: Homo sapiens
Description: SANGER: Inhibition of human RPMI-8866 cell growth in a cell viability assay.

[47] = tested on: UACC-257; format: functional, cell-based, Homo sapiens; settings: Homo sapiens, UACC-257
Description: SANGER: Inhibition of human UACC-257 cell growth in a cell viability assay.

[48] = tested on: 769-P; format: functional, cell-based, Homo sapiens; settings: Homo sapiens, 769-P
Description: SANGER: Inhibition of human 769-P cell growth in a cell viability assay.

[49] = tested on: ABC-1; format: functional, cell-based, Homo sapiens; settings: Homo sapiens, ABC-1;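 further: growth inhibition of human ABC-1 cells, read out by a cell viability assay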
Description: SANGER: Inhibition of human ABC-1 cell growth in a cell viability assay.

[50] = tested on: D-263MG; format: functional, cell-based, Homo sapiens; settings: Homo sapiens, D-263MG
Description: SANGER: Inhibition of human D-263MG cell growth in a cell viability assay.

[51] = tested on: BCPAP; format: functional, cell-based, Homo sapiens; settings: Homo sapiens, BCPAP;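 further: growth inhibition of BCPAP cells, read out in a cell viability assay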
Description: SANGER: Inhibition of human BCPAP cell growth in a cell viability assay.

## COc1cc([C@@H]2c3cc4c(cc3[C@@H](O[C@@H]3O[C@@H]5CO[C@@H](C)O[C@H]5[C@H](O)[C@H]3O)[C@H]3COC(=O)[C@H]23)OCO4)cc(OC)c1O [ETOPOSIDE]
[1]
  IC50: > 16000 nM
[2]
  IC50: 883 nM
[3]
  IC50: > 16000 nM
[4]
  IC50: > 16000 nM
[5]
  IC50: > 16000 nM
[6]
  IC50: 2920 nM
[7]
  IC50: 5640 nM
[8]
  IC50: > 16000 nM
[9]
  IC50: 2360 nM
[10]
  IC50: > 16000 nM
[11]
  IC50: 2890 nM
[12]
  IC50: 1590 nM
[13]
  IC50: 254 nM
[14]
  IC50: 96.2 nM
[15]
  IC50: 979 nM
[16]
  IC50: 10800 nM
[17]
  IC50: 1750 nM
[18]
  IC50: 8820 nM
[19]
  IC50: 368 nM
[20]
  IC50: > 16000 nM
[21]
  IC50: 3900 nM
[22]
  IC50: 463 nM
[23]
  IC50: 1770 nM
[24]
  IC50: 5120 nM
[25]
  IC50: 6630 nM
[26]
  IC50: > 16000 nM
[27]
  IC50: > 16000 nM
[28]
  IC50: 21.5 nM
[29]
  IC50: 754 nM
[30]
  IC50: 20.1 nM
[31]
  IC50: > 16000 nM
[32]
  IC50: 10900 nM
[33]
  IC50: > 16000 nM
[34]
  IC50: 15800 nM
[35]
  IC50: > 16000 nM
[36]
  IC50: > 16000 nM
[37]
  IC50: 1010 nM
[38]
  IC50: > 16000 nM
[39]
  IC50: > 16000 nM
[40]
  IC50: 8650 nM
[41]
  IC50: 17.8 nM
[42]
  IC50: 3000 nM
[43]
  IC50: 1740 nM
[44]
  IC50: > 16000 nM
[45]
  IC50: 2290 nM
[46]
  IC50: 4650 nM
[47]
  IC50: > 16000 nM
[48]
  IC50: 2260 nM
[49]
  IC50: 405 nM
[50]
  IC50: > 16000 nM
[51]
  IC50: 737 nM

## C[C@]1(O)C[C@@H](c2nc(-c3ccc4ccc(-c5ccccc5)nc4c3)c3c(N)nccn32)C1 [LINSITINIB]
[1]
  IC50: > 2560 nM
[2]
  IC50: > 2560 nM
[3]
  IC50: > 2560 nM
[4]
  IC50: 263 nM
[5]
  IC50: > 2560 nM
[6]
  IC50: > 2560 nM
[7]
  IC50: > 2560 nM
[8]
  IC50: 198 nM
[9]
  IC50: > 2560 nM
[10]
  IC50: > 2560 nM
[11]
  IC50: > 2560 nM
[12]
  IC50: > 2560 nM
[13]
  IC50: 107 nM
[14]
  IC50: > 2560 nM
[15]
  IC50: > 2560 nM
[16]
  IC50: > 2560 nM
[17]
  IC50: > 2560 nM
[18]
  IC50: > 2560 nM
[19]
  IC50: > 2560 nM
[20]
  IC50: > 2560 nM
[21]
  IC50: > 2560 nM
[22]
  IC50: > 2560 nM
[23]
  IC50: > 2560 nM
[24]
  IC50: > 2560 nM
[25]
  IC50: > 2560 nM
[26]
  IC50: > 2560 nM
[27]
  IC50: > 2560 nM
[28]
  IC50: 188 nM
[29]
  IC50: > 2560 nM
[30]
  IC50: 262 nM
[31]
  IC50: > 2560 nM
[32]
  IC50: > 2560 nM
[33]
  IC50: > 2560 nM
[34]
  IC50: > 2560 nM
[35]
  IC50: > 2560 nM
[36]
  IC50: > 2560 nM
[37]
  IC50: > 2560 nM
[38]
  IC50: > 2560 nM
[39]
  IC50: > 2560 nM
[40]
  IC50: > 2560 nM
[41]
  IC50: 749 nM
[42]
  IC50: > 2560 nM
[43]
  IC50: > 2560 nM
[44]
  IC50: > 2560 nM
[45]
  IC50: 1670 nM
[46]
  IC50: > 2560 nM
[47]
  IC50: > 2560 nM
[48]
  IC50: > 2560 nM
[49]
  IC50: 904 nM
[50]
  IC50: > 2560 nM
[51]
  IC50: > 2560 nM

## CCC1=C[C@@H]2CN(C1)Cc1c([nH]c3ccccc13)[C@@](C(=O)OC)(c1cc3c(cc1OC)N(C)[C@H]1[C@@](O)(C(=O)OC)[C@H](OC(C)=O)[C@]4(CC)C=CCN5CC[C@]31[C@@H]54)C2 [VINORELBINE]
[1]
  IC50: > 64 nM
[2]
  IC50: 4.6 nM
[3]
  IC50: > 64 nM
[4]
  IC50: > 64 nM
[5]
  IC50: 17.8 nM
[6]
  IC50: 33.4 nM
[7]
  IC50: > 64 nM
[8]
  IC50: > 64 nM
[9]
  IC50: 4.87 nM
[10]
  IC50: 58.1 nM
[11]
  IC50: 3.52 nM
[12]
  IC50: 6.83 nM
[13]
  IC50: 3.78 nM
[14]
  IC50: 48.1 nM
[15]
  IC50: 61.8 nM
[16]
  IC50: 8.39 nM
[17]
  IC50: 32.7 nM
[18]
  IC50: 18.9 nM
[19]
  IC50: 6.65 nM
[20]
  IC50: > 64 nM
[21]
  IC50: 38.3 nM
[22]
  IC50: 3.89 nM
[23]
  IC50: 0.105 nM
[24]
  IC50: 20.4 nM
[25]
  IC50: 12.5 nM
[26]
  IC50: > 64 nM
[27]
  IC50: > 64 nM
[28]
  IC50: 4.35 nM
[29]
  IC50: 3.3 nM
[30]
  IC50: 0.591 nM
[31]
  IC50: > 64 nM
[32]
  IC50: 12.5 nM
[33]
  IC50: 17.4 nM
[34]
  IC50: > 64 nM
[35]
  IC50: 40.1 nM
[36]
  IC50: > 64 nM
[37]
  IC50: 6.61 nM
[38]
  IC50: > 64 nM
[39]
  IC50: > 64 nM
[40]
  IC50: 13.9 nM
[41]
  IC50: 11 nM
[42]
  IC50: > 64 nM
[43]
  IC50: 40.7 nM
[44]
  IC50: > 64 nM
[45]
  IC50: > 64 nM
[46]
  IC50: 7 nM
[47]
  IC50: 30.4 nM
[48]
  IC50: 16.9 nM
[49]
  IC50: 3.02 nM
[50]
  IC50: > 64 nM
[51]
  IC50: 2.98 nM

Source: ChEMBL document CHEMBL1201861, “Genomics of Drug Sensitity in Cancer screening data, Wellcome Trust Sanger Institute”
